{"source": "paper PMC11352039", "about": "“Isolation and Characterization of Antioxidant Peptides from Dairy Cow (Bos taurus) Placenta and Their Antioxidant Activities” (Antioxidants, 2024)", "key": {"[1]": {"conditions": "cited from earlier work; for DPPH free-radical scavenging IC50: AOPs from skipjack tuna protein extract", "source_text": "The virtual screening method, employing peptide affinity for Keap1 as a screening parameter, exclusively confirms the capability of CP1 to activate the Keap1/Nrf2 pathway. On the other hand, the chromatographic method, utilizing the free-radical scavenging rate as a screening metric, solely validates the ability of CP2 to scavenge free radicals. […] The chemical method for evaluating AOP antioxidant activity can be categorized into two main types: hydrogen atom transfer and electron transfer. In assays such as hydroxyl and DPPH radical scavenging, AOP transforms free radicals into anions via electron transfer. Moreover, in the lipid peroxidation inhibition assay, AOP hinders lipid peroxidation by releasing hydrogen atoms, thereby deactivating free radicals."}, "[2]": {"system": "RAW264.7 cells", "conditions": "MTS; for cell survival rate: mean ± SD", "protocol": "RAW264.7 cells were cultured in a 5% CO2 environment at 37 °C using a specific complete medium (DMEM (PM150210) + 10% FBS (164210-50) + 1%P/S (PB180120)) designed for RAW264.7 cells. Cells in the logarithmic growth phase were harvested and seeded into 96-well plates at a density of 1 × 10^5 cells/mL per well with 100 μL of inoculation volume. Subsequently, the plates were pre-cultured for 12 h at 37 °C in a 5% CO2 atmosphere, following which the medium was removed.\nThe pre-cultured RAW264.7 cells were then divided into control (C) and model (M) groups. Then, 100 μL of complete medium was added to group C, and 100 μL of complete medium containing concentrations of 250, 300, 350, 400, and 450 μmol/L H2O2 was added to group M. After continuing the incubation for 6 h, the medium was discarded. Cell viability was assessed using the MTS method. The optimal H2O2 concentration for inducing the oxidative stress model was determined when cell viability decreased to 50%, ensuring that the cells maintained a specific viability level while meeting the damage criteria."}, "[3]": {"conditions": "cited from earlier work", "source_text": "AOP antioxidant activity is primarily assessed through chemical and cell modeling methods. The chemical method for evaluating AOP antioxidant activity can be categorized into two main types: hydrogen atom transfer and electron transfer. In assays such as hydroxyl and DPPH radical scavenging, AOP transforms free radicals into anions via electron transfer. Moreover, in the lipid peroxidation inhibition assay, AOP hinders lipid peroxidation by releasing hydrogen atoms, thereby deactivating free radicals."}, "[4]": {"system": "RAW264.7 cells", "experiment": "Survival of normal cells (MTS)", "type": "cell-based", "conditions": "24 h", "protocol": "Pre-cultured RAW264.7 cells were allocated into groups C, CP1, and CP2. Group C received 100 μL of complete medium, while groups CP1 and CP2 were supplemented with 100 μL of complete medium containing CP1 and CP2, respectively, at final concentrations of 1.25, 2.5, 5, 10, 20, and 40 μg/mL. The cells were then incubated for 24 h before discarding the medium. Cell viability was assessed using the MTS method to identify non-toxic concentration ranges for subsequent experiments."}, "[5]": {"experiment": "Antioxidant stability under simulated digestion", "type": "in vitro ADME", "conditions": "simulated GI (gastrointestinal) digestion versus G digestion; not significant (p > 0.05)", "source_text": "We refer to Chai et al. and Gallego et al. methods to evaluate the antioxidant stability of AOPs at different temperatures, pH levels, and simulated digestion conditions."}}, "note": "Like-named read-outs stand apart in the source and are kept apart here."}
{"compound": "QEAE [AOP from skipjack tuna protein extract, literature]", "values": [{"measurement": "DPPH free-radical scavenging IC50", "setting": "[1]", "value": 1770, "unit": "µg/mL"}]}
{"compound": "OO", "note": "[Peptide H2O2, hydrogen peroxide]", "values": [{"measurement": "cell activity", "setting": "[2]; RAW264.7, 200 μmol/L H2O2, 6 h", "value": "exceeded 90%"}, {"measurement": "cell survival rate", "setting": "[2]; RAW264.7, 250 μmol/L H2O2, 6 h", "value": "83.51 ± 6.15", "unit": "%"}, {"measurement": "cell survival rate", "setting": "[2]; RAW264.7, 300 μmol/L H2O2, 6 h", "value": "79.06 ± 3.21", "unit": "%"}, {"measurement": "cell survival rate", "setting": "[2]; RAW264.7, 350 μmol/L H2O2, 6 h", "value": "64.73 ± 0.99", "unit": "%"}, {"measurement": "cell survival rate", "setting": "[2]; RAW264.7, 400 μmol/L H2O2, 6 h", "value": "48.68 ± 5.48", "unit": "%"}, {"measurement": "cell survival rate", "setting": "[2]; RAW264.7, 450 μmol/L H2O2, 6 h", "value": "26.10 ± 1.65", "unit": "%"}]}
{"compound": "QAEP [AOP from skipjack tuna protein extract, literature]", "values": [{"measurement": "DPPH free-radical scavenging IC50", "setting": "[1]", "value": 1110, "unit": "µg/mL"}]}
{"compound": "YFLWP", "values": [{"measurement": "IC50 DPPH radical scavenging", "setting": "[1]; yellow croaker AOP", "value": 1590, "unit": "µg/mL"}, {"measurement": "IC50 hydroxyl radical scavenging", "setting": "[3]; yellow croaker AOP", "value": 2470, "unit": "µg/mL"}]}
{"compound": "YGPEP [sheepskin AOP, literature]", "values": [{"measurement": "IC50 lipid peroxidation inhibition rate", "setting": "[3]; sheepskin AOP", "value": 3940, "unit": "µg/mL"}]}
{"compound": "H-QPGLPGPAG-OH [CP2]", "values": [{"measurement": "cell viability of normal cells versus group C", "setting": "[4]; RAW264.7, 40.00 μg/mL", "value": "significantly lower than that of group C"}, {"measurement": "cell viability of normal cells versus group C", "setting": "[4]; RAW264.7, 1.25 to 20.00 μg/mL", "value": "did not show a significant difference compared to group C"}, {"measurement": "reduction of free-radical scavenging rate", "setting": "[5]", "value": 34.01, "unit": "%"}]}
{"compound": "EVGK [duck blood AOP, literature]", "values": [{"measurement": "DPPH radical scavenging rate", "setting": "[1]; 0.5 mg/mL, duck blood AOP", "value": 26.63, "unit": "%"}, {"measurement": "transition metal chelation rate", "setting": "[3]; 0.5 mg/mL, duck blood AOP", "value": 16.35, "unit": "%"}]}
{"compound": "H-ANNGKQWAEVF-OH [CP1]", "values": [{"measurement": "cell viability of normal cells versus group C", "setting": "[4]; RAW264.7, 40.00 μg/mL", "value": "significantly lower than that of group C"}, {"measurement": "cell viability of normal cells versus group C", "setting": "[4]; RAW264.7, 1.25 to 20.00 μg/mL", "value": "did not show a significant difference compared to group C"}, {"measurement": "reduction of free-radical scavenging rate", "setting": "[5]", "value": 38.64, "unit": "%"}]}
{"compound": "LCGEC [tuna AOP, literature]", "values": [{"measurement": "DPPH radical scavenging rate", "setting": "[1]; 1 mg/mL, tuna AOP", "value": 16.83, "unit": "%"}, {"measurement": "DPPH radical scavenging rate, IC50", "setting": "[1]; tuna AOP", "value": "exceeded 10 mg/mL"}]}
